Results: patent US10925855B2, “Compositions comprising water dispersible nanoparticles of a retinoid compound” (GALDERMA RESEARCH & DEVELOPMENT, priority 2015, dated 2021)

Assay: Chemical stability by HPLC
Format: physicochemical
Experimental: Chemical stability of nanosized compound A formulae were investigated by HPLC measurements. They were performed in an Agilent 1100 HPLC waters coupled with ZQ2000 MSD, C18, Phenomenex Gemini-NX 3 micron, 100×3 mm column.

decomposition of the active ingredient in HPLC analysis (0.1 M sodium hydroxide used as antisolvent (data not shown)): Significant decomposition
Structure (SMILES): CC(C)(C)c1cc(-c2cc(-c3ccc(C(=O)O)cc3)ccc2OCCO)ccc1N1CCCC1 [Compound A, 3″-tert-butyl-4′-(2-hydroxyethoxy)-4″-pyrrolidin-1-yl[1,1′;3′,1″]-terphenyl-4-carboxylic acid]
decomposition of the active ingredient in HPLC analysis (0.001 M sodium hydroxide solution as antisolvent): decomposition of the active could not be observed
decomposition of the active ingredient in HPLC analysis (0.01 M sodium hydroxide solution as antisolvent): decomposition of the active could not be observed
